Patent US4011390A, “Semi-synthetic aminocyclitol aminoglycoside antibiotics and methods for the preparation thereof” (Schering-Plough Corporation, priority 1974, dated 1977)
Where two headings read alike, the source gives them in different places.

Assays:
Assay type in all cases: cell-based
Bacillus subtilis = experiment: Disc test, Bauer-Kirby technique with 10 Mcg. discs; conditions: Bacillus subtilis, ATCC6633, strain ATCC 6633
Excerpt: (§1) Disc Test Results (Replicate Tests) With The Mutamicins, Sisomicin and
(§2) Bauer-Kirby Technique^1 With 10 Mcg. Discs
(§3) ^1 Bauer, Kirby, Sherris and Turck, American Journal of Clinical

Escherichia coli = experiment: as above; conditions: Escherichia coli, read-out: Zone Size
Excerpt: as §1, §2, §3

Klebsiella pneumoniae [1] = experiment: as above; conditions: Klebsiella pneumoniae
Excerpt: as §1, §2, §3

Proteus airabilis = experiment: as above; conditions: strain Harding
Excerpt: as §1, §2, §3

Proteus rettgeri = experiment: as above; conditions: Providencia rettgeri
Excerpt: as §1, §2, §3

Providence 164 = experiment: as above; conditions: strain 164
Excerpt: as §1, §2, §3

Pseudomonas aeruginosa = experiment: as above; conditions: Pseudomonas aeruginosa
Excerpt: as §1, §2, §3

Salmonella typhimurium = experiment: as above; conditions: Salmonella enterica, Group B
Excerpt: as §1, §2, §3

Staphylococcus aureus = experiment: as above; conditions: Staphylococcus aureus
Excerpt: as §1, §2, §3

Streptococcus pyogenes = experiment: as above; conditions: Streptococcus pyogenes
Excerpt: as §1, §2, §3

E. coli = experiment: Activity against resistant strains; conditions: E. coli W677/R55 and LA290/R55
Excerpt: (§4) In many instances, bacterial resistance is related to the organism's ability to inactivate the antibacterial agent via enzymatic (biochemical) means. Some species inactivate aminoglycosides antibiotics by acetylating the antibacterial agent, others by phosphorylation and still others by adenylylating. Some strains have several different inactivating capabilities. Further, the inactivation reactions occur at a specific site or sites on the antibacterial agent. We have shown by the compounds of this invention that alteration of sites on the antibiotic molecule not directly involved in inactivation processes can nevertheless frustrate these inactivation processes. […] The tables illustrate that the mutamicins include compounds which are active against strains having different mechanisms of inactivation of gentamicin, sisomicin, kanamycin, neomycin and torbramycin. For example, some mutamicins are effective against strains of E. coli which contain adenylylating R factors such as E. coli W677/R55 and LA290/R55. These E. coli strains are resistant to gentamicin, sisomicin and torbramycin. Some are also effective against gentamicin, tobramycin and kanamycin resistant adenylylating strains of Klebsiella pneumoniae and also kanamycin, neomycin phosphorylating strains of E. coli and Klebsiella pneumoniae. Further, some mutamicins are effective against gentamicin and sisomicin resistant strains of Pseudomonas aeruginosa and gentamicin, sisomicin, tobramycin resistant Providence which is sensitive to kanamycin. Thus, the mutamicins afford a means for combatting strains of bacteria which have already developed a variety of mechanisms for resisting the action of many of the antibiotics known in the art or currently in commercial use.

Klebsiella pneumoniae [2] = experiment: Activity against resistant strains; conditions: gentamicin, tobramycin and kanamycin resistant adenylylating strains
Excerpt: as §4

Providence = experiment: Activity against resistant strains; conditions: gentamicin, sisomicin, tobramycin resistant Providence
Excerpt: as §4

[3] = ATCC10536, strain ATCC 10536, 10 Mcg. discs
[4] = strain St. Michael 1574-1, 10 Mcg. discs
[5] = strain Swidinsky 4195, 10 Mcg. discs

Structure (SMILES) | zone of inhibition at 10 µg/disc (Bacillus subtilis) [mm] | zone of inhibition at 10 µg/disc (Escherichia coli; [3]) [mm] | zone of inhibition at 10 µg/disc (Escherichia coli; strain JR66, 10 Mcg. discs) [mm] | zone of inhibition at 10 µg/disc (Escherichia coli; strain JR88, 10 Mcg. discs) [mm] | zone of inhibition at 10 µg/disc (Escherichia coli; strain JR90, 10 Mcg. discs) [mm] | zone of inhibition at 10 µg/disc (Escherichia coli; [4]) [mm] | zone of inhibition at 10 µg/disc (Escherichia coli; [5]) [mm] | zone of inhibition at 10 µg/disc (Escherichia coli; strain W677/R55, 10 Mcg. discs) [mm] | zone of inhibition at 10 µg/disc (Klebsiella pneumoniae [1]; strain Ad 17) [mm] | zone of inhibition at 10 µg/disc (Klebsiella pneumoniae [1]; strain Ad 18) [mm] | zone of inhibition at 10 µg/disc (Klebsiella pneumoniae [1]; strain Georgetown 3020) [mm] | zone of inhibition at 10 µg/disc (Klebsiella pneumoniae [1]; strain Georgetown 3694) [mm] | zone of inhibition at 10 µg/disc (Proteus airabilis) [mm] | zone of inhibition at 10 µg/disc (Proteus rettgeri) [mm] | zone of inhibition at 10 µg/disc (Providence 164) [mm] | zone of inhibition at 10 µg/disc (Pseudomonas aeruginosa; strain Capetown 18) [mm] | zone of inhibition at 10 µg/disc (Pseudomonas aeruginosa; strain D-2) [mm] | zone of inhibition at 10 µg/disc (Pseudomonas aeruginosa; strain St. Michael 413) [mm] | zone of inhibition at 10 µg/disc (Pseudomonas aeruginosa; strain St. Michael 836) [mm] | zone of inhibition at 10 µg/disc (Pseudomonas aeruginosa; strain St. Michael 1262) [mm] | also measured
CN[C@@H]1[C@@H](O)[C@@H](O[C@@H]2[C@@H](N)[C@H](O[C@H]3OC(CN)=CC[C@H]3N)[C@@H](N)C[C@H]2N)OC[C@]1(C)O [Mutamicin 5] | 28 | 24 | 0 | 0 | 0 | 22 | 0 | 10 | 20 | 21 | 0 | 0 | 19 | 13 | 9 | 0 | 0 | 11 | 10 | 10 | zone of inhibition at 10 µg/disc (Escherichia coli): 18 mm; zone of inhibition at 10 µg/disc (Pseudomonas aeruginosa; strain St. Michael 1395): 0 mm; zone of inhibition at 10 µg/disc (Pseudomonas aeruginosa; strain Stone 20): 16 mm; zone of inhibition at 10 µg/disc (Pseudomonas aeruginosa; strain Stone 39): 12 mm; zone of inhibition at 10 µg/disc (Pseudomonas aeruginosa; strain Stone 130): 0 mm; zone of inhibition at 10 µg/disc (Pseudomonas aeruginosa; strain Stone 138): 0 mm; zone of inhibition at 10 µg/disc (Salmonella typhimurium): 22 mm; zone of inhibition at 10 µg/disc (Staphylococcus aureus; ATCC6538P, strain ATCC 6538P): 21 mm; zone of inhibition at 10 µg/disc (Staphylococcus aureus; strain 59N): 23 mm; zone of inhibition at 10 µg/disc (Staphylococcus aureus; strain Wood): 25 mm; zone of inhibition at 10 µg/disc (Staphylococcus aureus; strain Ziegler): 23 mm
CN[C@@H]1[C@@H](O)[C@@H](O[C@@H]2C[C@H](O[C@H]3OC(CN)=CC[C@H]3N)[C@@H](N)C[C@H]2N)OC[C@]1(C)O [Mutamicin 2] | 33 | 28 | 26 | 22 | 25 | 27 | 25 | 21 | 23 | 25 | 21 | 22 | 26 | 24 | 25 | 22 | 26 | 27 | 28 | 27 | zone of inhibition at 10 µg/disc (Escherichia coli; strain 589, 10 Mcg. discs): 24 mm; zone of inhibition at 10 µg/disc (Escherichia coli; strain LA290/R55, 10 Mcg. discs): 21 mm; zone of inhibition at 10 µg/disc (Pseudomonas aeruginosa; strain St. Michael 762): 26 mm; zone of inhibition at 10 µg/disc (Pseudomonas aeruginosa; strain St. Michael 1395): 28 mm; zone of inhibition at 10 µg/disc (Pseudomonas aeruginosa; strain Stone 20): 33 mm; zone of inhibition at 10 µg/disc (Pseudomonas aeruginosa; strain Stone 39): 27 mm; zone of inhibition at 10 µg/disc (Pseudomonas aeruginosa; strain Stone 130): 25 mm; zone of inhibition at 10 µg/disc (Pseudomonas aeruginosa; strain Stone 138): 23 mm; zone of inhibition at 10 µg/disc (Salmonella typhimurium): 27 mm; zone of inhibition at 10 µg/disc (Staphylococcus aureus; ATCC6538P, strain ATCC 6538P): 27 mm; zone of inhibition at 10 µg/disc (Staphylococcus aureus; strain 59N): 29 mm; zone of inhibition at 10 µg/disc (Staphylococcus aureus; strain 1118): 14 mm; zone of inhibition at 10 µg/disc (Staphylococcus aureus; strain Grey): 16 mm; zone of inhibition at 10 µg/disc (Staphylococcus aureus; strain Wood): 29 mm; zone of inhibition at 10 µg/disc (Staphylococcus aureus; strain Ziegler): 28 mm; zone of inhibition at 10 µg/disc (Streptococcus pyogenes; strain B-Cruz): 17 mm; zone of inhibition at 10 µg/disc (Streptococcus pyogenes; strain C): 15 mm
NC[C@H]1O[C@H](O[C@H]2[C@H](O)[C@@H](O[C@H]3O[C@H](CO)[C@@H](O)[C@H](N)[C@H]3O)[C@H](N)C[C@@H]2N)[C@H](N)C[C@@H]1O [tobramycin] | – | – | – | – | – | – | – | – | – | – | – | – | – | – | – | – | – | – | – | – | activity against strains containing adenylylating R factors (E. coli): resistant; activity against resistant adenylylating strains (Klebsiella pneumoniae [2]): resistant; activity against resistant Providence (Providence): resistant
NC[C@H]1O[C@H](O[C@H]2[C@H](O)[C@@H](O[C@H]3O[C@H](CO)[C@@H](O)[C@H](N)[C@H]3O)[C@H](N)C[C@@H]2N)[C@H](O)[C@@H](O)[C@@H]1O [kanamycin] | – | – | – | – | – | – | – | – | – | – | – | – | – | – | – | – | – | – | – | – | activity against resistant adenylylating strains (Klebsiella pneumoniae [2]): resistant; activity against resistant Providence (Providence): sensitive
CN[C@@H]1[C@@H](O)[C@@H](O[C@H]2[C@H](N)[C@H](O)[C@H](N)[C@@H](O[C@H]3OC(CN)=CC[C@H]3N)[C@@H]2O)OC[C@]1(C)O [Mutamicin 4] | 29 | 27 | 18 | 16 | 22 | 25 | 17 | 13 | 25 | 24 | 19 | 19 | 21 | 14 | 0 | 16 | 17 | 19 | 19 | 19 | zone of inhibition at 10 µg/disc (Escherichia coli; strain 589, 10 Mcg. discs): 26 mm; zone of inhibition at 10 µg/disc (Escherichia coli; strain Baker 2, 10 Mcg. discs): 24 mm; zone of inhibition at 10 µg/disc (Klebsiella pneumoniae [1]; strain Ad 22): 26 mm; zone of inhibition at 10 µg/disc (Pseudomonas aeruginosa; strain St. Michael 1395): 19 mm; zone of inhibition at 10 µg/disc (Pseudomonas aeruginosa; strain Stone 20): 28 mm; zone of inhibition at 10 µg/disc (Pseudomonas aeruginosa; strain Stone 39): 20 mm; zone of inhibition at 10 µg/disc (Pseudomonas aeruginosa; strain Stone 130): 14 mm; zone of inhibition at 10 µg/disc (Pseudomonas aeruginosa; strain Stone 138): 11 mm; zone of inhibition at 10 µg/disc (Salmonella typhimurium): 25 mm; zone of inhibition at 10 µg/disc (Staphylococcus aureus; ATCC6538P, strain ATCC 6538P): 24 mm; zone of inhibition at 10 µg/disc (Staphylococcus aureus; strain 59N): 26 mm; zone of inhibition at 10 µg/disc (Staphylococcus aureus; strain 1118): 14 mm; zone of inhibition at 10 µg/disc (Staphylococcus aureus; strain Grey): 13 mm; zone of inhibition at 10 µg/disc (Staphylococcus aureus; strain Wood): 26 mm; zone of inhibition at 10 µg/disc (Staphylococcus aureus; strain Ziegler): 24 mm; zone of inhibition at 10 µg/disc (Streptococcus pyogenes; strain 27): 12 mm; zone of inhibition at 10 µg/disc (Streptococcus pyogenes; strain C): 12 mm
